From patent US20250179066A1, “ZWITTERIONIC ANTIBACTERIAL COMPOUNDS” (Hoffmann-La Roche Inc., priority 2022, published 2025) come the findings set out here.

Where a name gives a salt, the structure may show the parent alone.

The first experiment deals with Acinetobacter baumannii ATCC17961. Nature of the experiment: Antimicrobial susceptibility testing: 90% growth inhibitory concentration (IC90) determination. Type of experiment: cell-based. Conditions: 90% growth inhibitory concentration against Acinetobacter baumannii ATCC17961, Iso-Sensitest broth, OD 600 nm over 16 h; read-out: ATCC 17961 IC90. In outline:
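OD600 monitored each minute over 16 h at 35±2° C for bacteria (~5×10^5 CFU/mL final) in Iso-Sensitest medium with 10-point twofold compound series (e.g. 10-0.0195 μM final). Concentration giving 90% growth inhibition in log phase reported as IC90.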
As usually defined, the IC90 is the concentration at which the effect reaches the 90% level. Take `Cn1c(-c2cn(-c3ccc(N)cc3F)nc2C(F)(F)F)cnc1C(=O)Nc1ccc(C(=O)N2CCN(C(=O)CCC[N+](CCCN)(CCCN)CCCC(=O)O)CC2)c(Cl)c1` [Example 182, [4-[4-[4-[[5-[1-(4-amino-2-fluoro-phenyl)-3-(trifluoromethyl)pyrazol-4-yl]-1-methyl-imidazole-2-carbonyl]amino]-2-chloro-benzoyl]piperazin-1-yl]-4-oxo-butyl]-bis(3-aminopropyl)-(3-carboxypropyl)ammonium; 2,2,2-trifluoroacetate]: the concentration for an effect of 90% (IC90) amounted to 201 nM.
On the same count and under the same terms, in the case of “cis-2-[4-[4-[4-[[5-[1-(4-Amino-2-fluoro-phenyl)-3-(difluoromethyl) pyrazol-4-yl]-1-methyl-imidazole-2-carbonyl]amino]-2-chloro-benzoyl]piperazine-1-carbonyl]-1-(azetidin-3-ylmethyl)piperidin-1-ium-1-yl]acetic Acid;2,2,2-trifluoroacetate [Example 128]” it was 358 nM.

The same experiment, now with this note: Acinetobacter baumannii, ATCC17961, 16 h, 90% growth inhibitory concentration against Acinetobacter baumannii ATCC17961, Iso-Sensitest broth, OD 600 nm over 16 h; read-out: ATCC 17961 IC90.
With `Cn1c(-c2cn(-c3ccc(N)cc3F)nc2C(F)(F)F)cnc1C(=O)Nc1ccc(C(=O)N2CCN(C(=O)CCC[N+](CCCN)(CCCN)CC(=O)O)CC2)c(Cl)c1` [Example 183, [4-[4-[4-[[5-[1-(4-amino-2-fluoro-phenyl)-3-(trifluoromethyl)pyrazol-4-yl]-1-methyl-imidazole-2-carbonyl]amino]-2-chloro-benzoyl]piperazin-1-yl]-4-oxo-butyl]-bis(3-aminopropyl)-(carboxymethyl)ammonium;formate], the 90% effect concentration (IC90) worked out at 108 nM.
On the same count and under the same terms, with `Cn1c(-c2cn(-c3ncc(N)cc3F)nc2C(F)(F)F)cnc1C(=O)Nc1ccc(C(=O)N2CCN(C(=O)[C@H]3CC[N@+](CC(=O)O)(CC4CNC4)CC3)CC2)c(Cl)c1` [Example 58, cis-2-[4-[4-[4-[[5-[1-(5-Amino-3-fluoro-2-pyridyl)-3-(trifluoromethyl)pyrazol-4-yl]-1-methyl-imidazole-2-carbonyl]amino]-2-chloro-benzoyl]piperazine-1-carbonyl]-1-(azetidin-3-ylmethyl)piperidin-1-ium-1-yl]acetic Acid.1:1 2,2,2-trifluoroacetate] the figure was 630 nM.
As for `Cn1c(-c2cn(-c3ccc(N)c(N)n3)nc2C(F)(F)F)cnc1C(=O)Nc1ccc(C(=O)N2CCN(C(=O)C3CC[N+](CC(=O)O)(CC4CNC4)CC3)CC2)c(Cl)c1` (centres unmarked) [Example 67, 2-[1-(azetidin-3-ylmethyl)-4-[4-[2-chloro-4-[[5-[1-(5,6-diamino-2-pyridyl)-3-(trifluoromethyl)pyrazol-4-yl]-1-methyl-imidazole-2-carbonyl]amino]benzoyl]piperazine-1-carbonyl]piperidin-1-ium-1-yl]acetic acid. 1:1 2,2,2-trifluoroacetate], the IC90 came to 720 nM.
Regarding `Cn1c(-c2cn(-c3ccc(NCCN)cn3)nc2C(F)(F)F)cnc1C(=O)Nc1ccc(C(=O)N2CCN(C(=O)C3CC[N+](C)(CC(=O)[O-])CC3)CC2)c(Cl)c1` (centres unmarked) [Example 201, 2-[4-[4-[4-[[5-[1-[5-(2-aminoethylamino)-2-pyridyl]-3-(trifluoromethyl)pyrazol-4-yl]-1-methyl-imidazole-2-carbonyl]amino]-2-chloro-benzoyl]piperazine-1-carbonyl]-1-methyl-piperidin-1-ium-1-yl]acetate], the concentration for an effect of 90% (IC90) was 682 nM.
On the same count and under the same terms, in the case of `Cn1c(-c2cn(-c3ccc(N)cn3)nc2C(F)(F)F)cnc1C(=O)Nc1ccc(C(=O)N2CCN(C(=O)C3CC[N+](CC(=O)O)(CC4CNC4)CC3)CC23CC3)c(Cl)c1` (centres unmarked) [Example 93, 2-[4-[4-[4-[[5-[1-(5-amino-2-pyridyl)-3-(trifluoromethyl)pyrazol-4-yl]-1-methyl-imidazole-2-carbonyl]amino]-2-chloro-benzoyl]-4,7-diazaspiro[2.5]octane-7-carbonyl]-1-(azetidin-3-ylmethyl)piperidin-1-ium-1-yl]acetic acid. 1:1 formate] it was 1660 nM; in that of `CN(C)CC[N@+]1(CC(=O)O)CC[C@@H](C(=O)N2CCN(C(=O)c3ccc(NC(=O)c4ncc(-c5cn(-c6ccc(N)cc6F)nc5C(F)(F)F)n4C)cc3Cl)CC2)CC1` [Example 188, cis-2-[4-[4-[4-[[5-[1-(4-amino-2-fluoro-phenyl)-3-(trifluoromethyl)pyrazol-4-yl]-1-methyl-imidazole-2-carbonyl]amino]-2-chloro-benzoyl]piperazine-1-carbonyl]-1-[2-(dimethylamino)ethyl]piperidin-1-ium-1-yl]acetic acid;2,2,2-trifluoroacetate], 540 nM.
On the same count and under the same terms, with `Cn1c(-c2cn(-c3ccc(C#N)cn3)nc2C(F)(F)F)cnc1C(=O)Nc1ccc(C(=O)N2CCN(C(=O)C3CC[N+](CC(=O)O)(CC4CNC4)CC3)CC2)c(Cl)c1` (centres unmarked) [Example 76, 2-[1-(azetidin-3-ylmethyl)-4-[4-[2-chloro-4-[[5-[1-(5-cyano-2-pyridyl)-3-(trifluoromethyl)pyrazol-4-yl]-1-methyl-imidazole-2-carbonyl]amino]benzoyl]piperazine-1-carbonyl]piperidin-1-ium-1-yl]acetic acid. 1:1 formate] the figure was 1030 nM.
On to `Cn1c(-c2cn(-c3ccc(NCCN(CCN)CCN)cn3)nc2C(F)(F)F)cnc1C(=O)Nc1ccc(C(=O)N2CCN(C(=O)C3CC[N+](CC(=O)O)(CC4CNC4)CC3)CC2)c(Cl)c1` (stereo not drawn) [Example 166, cis-2-[1-(azetidin-3-ylmethyl)-4-[4-[4-[[5-[1-[5-[2-[bis(2-aminoethyl)amino]ethylamino]-2-pyridyl]-3-(trifluoromethyl)pyrazol-4-yl]-1-methyl-imidazole-2-carbonyl]amino]-2-chloro-benzoyl]piperazine-1-carbonyl]piperidin-1-ium-1-yl]acetic acid;formic acid;formate], for which the IC90 is 152 nM.
As for `COc1ccc(-n2cc(-c3cnc(C(=O)Nc4ccc(C(=O)N5CCN(C(=O)C6CC[N+](CC(=O)O)(CC7CNC7)CC6)CC5)c(Cl)c4)n3C)c(C(F)(F)F)n2)cn1` (centres unmarked) [Example 82, 2-[1-(azetidin-3-ylmethyl)-4-[4-[2-chloro-4-[[5-[1-(6-methoxy-3-pyridyl)-3-(trifluoromethyl)pyrazol-4-yl]-1-methyl-imidazole-2-carbonyl]amino]benzoyl]piperazine-1-carbonyl]piperidin-1-ium-1-yl]acetic acid. 1:1 2,2,2-trifluoroacetate], the IC90 was determined as 1220 nM.
Still for that read-out and setting: with `Cn1c(-c2cn(-c3cc4cc[nH]c4cn3)nc2C(F)(F)F)cnc1C(=O)Nc1ccc(C(=O)N2CCN(C(=O)[C@H]3CC[N@+](CC(=O)O)(CC4CNC4)CC3)CC2)c(Cl)c1` [Example 200, cis-2-[1-(azetidin-3-ylmethyl)-4-[4-[2-chloro-4-[[1-methyl-5-[1-(1H-pyrrolo[2,3-c]pyridin-5-yl)-3-(trifluoromethyl)pyrazol-4-yl]imidazole-2-carbonyl]amino]benzoyl]piperazine-1-carbonyl]piperidin-1-ium-1-yl]acetic acid. 1:1 2,2,2-trifluoroacetate] the figure was 400 nM; with `Cn1c(-c2cn(-c3ccc4c(ccn4CCO)n3)nc2C(F)(F)F)cnc1C(=O)Nc1ccc(C(=O)N2CCN(C(=O)[C@H]3CC[N@+](CC(=O)O)(CC4CNC4)CC3)CC2)c(Cl)c1` [Example 198, cis-2-[1-(azetidin-3-ylmethyl)-4-[4-[2-chloro-4-[[5-[1-[1-(2-hydroxyethyl)pyrrolo[3,2-b]pyridin-5-yl]-3-(trifluoromethyl)pyrazol-4-yl]-1-methyl-imidazole-2-carbonyl]amino]benzoyl]piperazine-1-carbonyl]piperidin-1-ium-1-yl]acetic acid. 1:1 2,2,2-trifluoroacetate], 370 nM.
On the same count and under the same terms, in the case of `Cn1c(-c2cn(-c3ccc(N)cc3F)nc2C(F)(F)F)cnc1C(=O)Nc1ccc(C(=O)N2CCN(C(=O)[C@H]3CC[N@+](CC(=O)O)(CC4CNC4)CC3)CC2)c(Cl)c1` [Example 16, cis-2-[4-[4-[4-[[5-[1-(4-amino-2-fluoro-phenyl)-3-(trifluoromethyl)pyrazol-4-yl]-1-methyl-imidazole-2-carbonyl]amino]-2-chloro-benzoyl]piperazine-1-carbonyl]-1-(azetidin-3-ylmethyl)piperidin-1-ium-1-yl]acetic acid. 1:1 2,2,2-trifluoroacetate] it was 210 nM.
The same measure, in the same setting: with `Cn1c(-c2cn(-c3ccc(N)cn3)nc2C(F)(F)F)cnc1C(=O)Nc1ccc(C(=O)N2CCN(C(=O)[C@H]3CC[N@@+](CCCN)(CC(=O)O)CC3)CC2)c(Cl)c1` [Example 32, cis-2-[1-(3-aminopropyl)-4-[4-[4-[[5-[1-(5-amino-2-pyridyl)-3-(trifluoromethyl)pyrazol-4-yl]-1-methyl-imidazole-2-carbonyl]amino]-2-chloro-benzoyl]piperazine-1-carbonyl]piperidin-1-ium-1-yl]acetic acid. 1:1 2,2,2-trifluoroacetate] the figure was 370 nM; with `COCC1CN(C(=O)c2ccc(NC(=O)c3ncc(-c4cn(-c5ccc(N)cn5)nc4C(F)(F)F)n3C)cc2Cl)CCN1C(=O)C1CC[N+](CC(=O)O)(CC2CNC2)CC1` (centres unmarked) [Example 97, 2-[4-[4-[4-[[5-[1-(5-amino-2-pyridyl)-3-(trifluoromethyl)pyrazol-4-yl]-1-methyl-imidazole-2-carbonyl]amino]-2-chloro-benzoyl]-2-(methoxymethyl)piperazine-1-carbonyl]-1-(azetidin-3-ylmethyl)piperidin-1-ium-1-yl]acetic acid. 1:1 formate], 1840 nM; with `Cn1c(-c2cn(-c3ccnc(N)c3)nc2C(F)(F)F)cnc1C(=O)Nc1ccc(C(=O)N2CCN(C(=O)C3CC[N+](CC(=O)O)(CC4CNC4)CC3)CC2)c(Cl)c1` (centres unmarked) [Example 74, 2-[4-[4-[4-[[5-[1-(2-amino-4-pyridyl)-3-(trifluoromethyl)pyrazol-4-yl]-1-methyl-imidazole-2-carbonyl]amino]-2-chloro-benzoyl]piperazine-1-carbonyl]-1-(azetidin-3-ylmethyl)piperidin-1-ium-1-yl]acetic acid. 1:1 2,2,2-trifluoroacetate], 940 nM.
